Data on 1 compound can be found in publication PMC9609996, “SAR Study and Molecular Mechanism Investigation of Novel Naphthoquinone-furan-2-cyanoacryloyl Hybrids with Antitumor Activity” (Pharmaceutics, 2022).

For one test, the system named is HeLa. Description: CCK-8 anti-proliferation assay, HeLa. In kind it is cell-based, human. As to conditions: Homo sapiens, mean ± SD. On the procedure: (§1) Human cervical cancer HeLa, human prostate cancer PC3, human colonic carcinoma HCT116, human lung carcinoma A549, human breast cancer MDA-MB-231, mouse melanoma B16, human ovarian cancer SKOV3, human hepatoma Hep3B, and human liver L02 cells were purchased from the Cell Bank of Shanghai Institute of Biochemistry and Cell Biology, Chinese Academy of Sciences (Shanghai, China). The HeLa, A549, B16, PC3, MDA-MB-231, HCT116, and L02 cells were cultured in Dulbecco’s modified Eagle medium (DMEM, Gibco Inc.; Gaithersburg, MD, USA). All cultures were supplied with 10% fetal bovine serum (FBS; YHSM, Beijing, China), 100 IU/mL of penicillin, and 100 μg/mL of streptomycin, and cells were incubated at 37 °C in an atmosphere of 5% CO2.
(§2) A CCK-8 kit (MCE, USA) was used to perform a CCK-8 assay. Cells were plated and grown in the 96-well plates for the indicated period (48 h) in the incubator, followed by an incubation with the CCK-8 solutions for 1–4 h. Subsequently, the absorbance (450 nm) was measured by a microplate reader. The median inhibitory concentration (IC50) was determined from the dose–response curve. Experiments were performed in a triplicate.
Background: Tetrazolium assays rely on reduction of a dye to a coloured formazan, in cell work by metabolically active cells.

The next test relates to A549. Description: CCK-8 anti-proliferation assay, A549. As to conditions: mean ± SD; for IC50: 48 h. In kind it is cell-based, human. The protocol: as §1, §2
The next test deals with HCT116. Nature of the test: CCK-8 anti-proliferation assay, HCT116. It counts as cell-based, human. The following applies: Homo sapiens, mean ± SD. On the procedure:
as §1, §2

The test system of a further test is MDA-MB-231. Nature of the test: CCK-8 anti-proliferation assay, MDA-MB-231. In kind it is cell-based, human. The following applies: mean ± SD. The protocol:
as §1, §2

The target of a further test is recombinant STAT3 (Homo sapiens, UniProt P40763). Nature of the test: Biolayer interferometry (BLI) assay. As to conditions: 5c 7.81 to 250 μM, 25 °C, read-out: binding affinity (KD). The protocol: To confirm that compound 5c is a direct STAT3 inhibitor, a BLI (Biolayer interferometry) analysis was performed. Briefly, recombinant STAT3 with a His-tag was immobilized on SSA biosensors, and the dissociation constants were determined by measuring the binding to serial dilutions of 5c at concentrations ranging from 7.81 to 250 μM (Figure 10A). The signal was collected, and the kinetic affinity was calculated by the software. The steady-state curve reaches saturation (Figure 10B).
Purified recombinant STAT3 proteins were biotinylated using the EZ-Link biotinylation reagent (Thermo Fisher Scientific). Briefly, the protein and biotinylation reagent were mixed with a 1:1 molar ratio in PBS at 4 °C. Low biotinylation reagent concentration was applied to avoid protein over-biotinylation. These reaction mixtures were incubated at room temperature for 30 min to allow for the completion of the reaction. Reaction mixture was then dialyzed using 10K MWCO dialysis cassettes (Thermo Fisher Scientific) to remove unreacted biotinylation reagent.
BLI experiments were performed using an OctetRED96 instrument from ForteBio. All assays were run at 25 °C with continuous 1000 RPM shaking. […] The resulting data were analyzed based on a 1:1 binding model from which the kon and koff values were obtained. After, the KD values were calculated.
In general terms: Biolayer interferometry detects binding as a change in optical thickness at a sensor tip.

Another test concerns STAT3 in HeLa cells. Description: Western blot, STAT3 and p-STAT3 (Y705). In kind it is cell-based, human. As to conditions: 6–12 μM, 24 h. The protocol:
As many quinone compounds have anti-proliferation activity by inhibiting the STAT3 [34], we evaluated whether compound 5c could inhibit its phosphorylation. HeLa cells were incubated with different concentrations (6–12 μM) of 5c for 24 h. Then, the levels of total STAT3 and phosphorylated STAT3 at the tyrosine 705 residue were detected by a Western blot analysis.
Protein levels were determined by the standard Western blot assay. HeLa cells were incubated with different concentrations of compound 5c or 0.1% DMSO for 24 h. […] The bound immuno-complexes were detected using a ChemiDOC XRS+ system (BioRad Laboratories, Hercules, CA, USA).
(In general: A western blot detects proteins with antibodies after separation by electrophoresis.)

For the next test, the system named is Bax in HeLa cells. Nature of the test: Western blot, Bax. The following applies: 6–12 μM, 24 h. In kind it is cell-based, human. The protocol: Protein levels were determined by the standard Western blot assay. HeLa cells were incubated with different concentrations of compound 5c or 0.1% DMSO for 24 h. Cells harvested with trypsin were treated with 1× RIPA lysis buffer (50 mM Tris-HCl, pH 7.4, 150 mM NaCl, 0.25% deoxycholic acid, 1% NP-40, 1 mM ethylenediaminetetraacetate (EDTA), and protease inhibitor PMSF (Solarbio, Beijing, China) to extract the total proteins. Then, an aliquot of proteins from the total cell lysates (4–40 μg/lane) was separated using sodium dodecyl sulfate (8, 10, or 12%) polyacrylamide gel electrophoresis (BioRad Laboratories, Hercules, CA, USA). The aliquot was wet-transferred to a PVDF membrane (BioRad Laboratories, Hercules, CA, USA), blotted with primary antibodies (purchased from Cell Signaling Technology, Danvers, MA, USA) specific for the STAT3 (#12640), p-STAT3 (#9145), AKT (#4691), p-AKT (#4060), Bax (#5023), Bcl-xl (#2764), secondary isotype-specific antibodies (#7074) and glyceraldehyde-3-phosphate dehydro-genase (GAPDH, #2118) as the internal standard overnight; then, they were probed with secondary isotype-specific antibodies for another 2 h at 37 °C. The bound immuno-complexes were detected using a ChemiDOC XRS+ system (BioRad Laboratories, Hercules, CA, USA).

For orientation: inhibition means the share of the control response that was lost under treatment. What is called IC50 is the concentration that gives 50% inhibition. What is called Kd is the equilibrium constant for the complex coming apart.

A value given as a limit tells only on which side of the number the result lay.

Chain of recombinant STAT3 (P40763 whole entry): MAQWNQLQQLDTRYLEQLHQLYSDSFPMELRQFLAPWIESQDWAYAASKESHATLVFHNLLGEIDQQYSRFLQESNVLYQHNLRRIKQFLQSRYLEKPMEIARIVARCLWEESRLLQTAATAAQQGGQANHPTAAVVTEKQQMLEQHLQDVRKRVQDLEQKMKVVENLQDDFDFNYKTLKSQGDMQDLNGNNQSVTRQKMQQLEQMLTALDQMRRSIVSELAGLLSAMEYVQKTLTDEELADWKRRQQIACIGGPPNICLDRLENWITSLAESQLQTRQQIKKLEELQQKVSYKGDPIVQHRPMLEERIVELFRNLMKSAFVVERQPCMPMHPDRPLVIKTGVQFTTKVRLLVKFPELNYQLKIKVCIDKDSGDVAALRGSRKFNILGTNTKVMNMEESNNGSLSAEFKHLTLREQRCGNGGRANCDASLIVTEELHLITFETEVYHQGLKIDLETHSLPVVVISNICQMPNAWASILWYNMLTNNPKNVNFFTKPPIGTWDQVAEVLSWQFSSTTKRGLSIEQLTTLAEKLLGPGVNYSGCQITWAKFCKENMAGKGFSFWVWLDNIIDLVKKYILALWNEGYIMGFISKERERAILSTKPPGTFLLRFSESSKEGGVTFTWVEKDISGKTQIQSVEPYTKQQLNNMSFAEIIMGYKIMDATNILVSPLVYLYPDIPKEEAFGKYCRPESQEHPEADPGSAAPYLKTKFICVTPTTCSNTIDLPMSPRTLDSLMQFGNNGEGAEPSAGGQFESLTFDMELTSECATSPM

For `N#C/C(=C\c1ccc(C2=CC(=O)c3ccccc3C2=O)o1)C(=O)NCCN1CCOCC1` [Compound 5c, (E)-2-cyano-3-(5-(1,4-dioxo-1,4-dihydronaphthalen-2-yl)furan-2-yl)-N-(2-morpholinoethyl)acrylamide], the inhibition at 20 µM was found to be 75.78 ± 0.05% with HeLa (20 μM, read-out: Inhibition Rate (%) at 20 μM HeLa); 24.69 ± 0.04% in the test on A549 (Homo sapiens, A549, 20 μM, read-out: Inhibition Rate (%) at 20 μM A549); 67.67 ± 0.01% in the test on HCT116 (HCT-116, 20 μM, read-out: Inhibition Rate (%) at 20 μM HCT116). The half-maximal inhibitory concentration (IC50) in the test with HeLa (48 h) was 3.1 ± 0.02 µM; with A549, 35.27 ± 0.07 µM; in the test with A549 (Homo sapiens, A549, 48 h), above 20.5 µM; in the test with HCT116 (HCT-116, 48 h), 13.38 ± 0.04 µM; in the test with MDA-MB-231 (48 h), 40.74 ± 0.12 µM; with MDA-MB-231 (Homo sapiens, MDA-MB-231, 48 h), above 20.5 µM. Further, on recombinant STAT3, the Kd amounted to 13 µM. For the same compound, in the test with STAT3 in HeLa cells, the “Y705 STAT3 phosphorylation” value is reported as “dose-dependently abrogated”. The “level of total STAT3” value in the test on STAT3 in HeLa cells is “slightly down-regulated”. In addition, the “levels of Bax” value in the test with Bax in HeLa cells was “increased”.
